Test system: library of 8,380 IKZF3 degrons (ZF-eGFP/mCherry reporter) in Jurkat cells
Assay: Pooled library screen (FACS, NGS, limma voom LogFC of positive vs negative read counts)
Assay type: cell-based, human
Experimental: A library of 8,380 IKZF3 degrons was cloned into pLVX-Sprout to create the eGFP/mCherry protein degradation reporter plasmid pool. A lentivirus pool was then generated using the Lenti-X lentiviral vector production method.
Jurkat cells were transduced at a multiplicity of infection of <0.3 with the lentivirus vector library in order to maximise the number of cells with a single integration. Transductions were carried out in 6 well TC-treated cell culture dishes (Falcon) with 3×10^6 cells per well. Cells were incubated for 2 days at 37° C. and 5% CO2 before the supernatant was removed and replaced with fresh media. 6 days post-transduction, mCherry+ cells were isolated via FACS using the FACS Aria Fusion (BD) in a buffer containing PBS (Gibco), 2 mM EDTA (Gibco), 25 mM HEPES (Sigma) and 1% BSA (Sigma). 8 days later, cells were treated with DMSO or a thalidomide analog for 18 hours at 37° C. and 5% CO2. mCherry+GFPlow and NOT(mCherry+GFPlow) cells were sorted by FACS using the FACS Aria Fusion (BD). DMSO treated cells were used to set the mCherry+GFPlow gate and dead cells were excluded from sorting by staining cells with 1 μg/mL DAPI (ThermoFisher). gDNA was isolated using the Maxwell RSC 48 (Promega). gDNA from cells that were unsorted and untreated were also isolated to determine the library representation on the day of compound treatment. Throughout the screen >600× coverage of the library was maintained. 3 biological replicates were carried out with a new transduction taking place each time.
A two-step PCR was used where the first PCR (PCR1) amplified the integrated degron sequence from gDNA and the second PCR (PCR2) added Illumina adaptors and barcodes to permit multiplexing. See Supp F for PCR1 and PCR2 primers. Q5 Hot Start High-Fidelity 2× Master Mix (New England Biolabs) was used for both PCRs. Sufficient gDNA was amplified in PCR1 in order to maintain >600× coverage and amplicons were purified using solid phase reversible immobilization (SPRI) beads (Beckman Coulter). Purified PCR1 products were analysed on the Tapestation 4200 (Agilent) to confirm purity prior to proceeding to PCR2. Sufficient PCR1 product was amplified in PCR2 in order to maintain >600× coverage and amplicons were run on a 2% agarose TAE gel. Target bands were excised and purified using the NucleoSpin Gel and PCR Clean-up Kit (Machery Nagel). Amplicons were analysed on the Tapestation 4200 and quantified using Qubit dsDNA HS kit (ThermoFisher). PCR products were pooled and sequenced as paired-reads on the NovaSeq (Illumina) using a SP2 200 cycles kit (Illumina).
Count distributions, percentage of read mapping, library coverage and replicate correlation per sample were assessed for QC purposes.
To carry out the library screen, we used the same plasmid construct as in our earlier flow cytometry assays, but pooling all 8,380 mutants together into one Jurkat population, ensuring a copy number of one plasmid per cell (FIG. 4B). […] These GFP-negative cells were then separated from the remaining GFP-positive population using fluorescence activated cell sorting (FACS). These two populations were then sequenced and the relative abundance of every mutant in both populations compared to provide a log FC value for each mutant sequence. This value indicated how frequently a sequence is observed in the GFP-negative population relative to the GFP-positive population, and therefore how effective a degron it is for that particular IMID compound.

`CC(C)(C)c1ccc2c(c1)C(=O)N(C1CCC(=O)NC1=O)C2=O` (stereo not shown) [A63, 5-(tert-butyl)-2-(2,6-dioxopiperidin-3-yl)isoindoline-1,3-dione] was tested, and the “position of the WT sequence in the volcano plot of the library screen” value (WT ZF sequence) was “far away from the ‘hits’ region”, the “A63_logFC (Estimated LogFC Coefficient, positive vs negative read counts)” value (mutant degron: Degron-ID 214, SEQ ID NO 1763, 46F_47A_49P_50Q_52G_53A_54R_55F_67L) was 2.012 and the “A63_logFC (Estimated LogFC Coefficient, positive vs negative read counts)” value (mutant degron: Degron-ID 1093, SEQ ID NO 1762, 46F 47F_49N_50I_52G_53A 54Q 55F 67L) was 2.015. The “A63_logFC (Estimated LogFC Coefficient, positive vs negative read counts)” value (mutant degron: Degron-ID 1448, SEQ ID NO 1767, 46F_47H_49D_50I_52G_53A_54K_55F_67L) was 2.005, the “A63_logFC (Estimated LogFC Coefficient, positive vs negative read counts)” value (mutant degron: Degron-ID 1792, SEQ ID NO 1752, 46F 47I 49E_50V_52G_53A 54P 55F 67L) was 2.03 and the “A63_logFC (Estimated LogFC Coefficient, positive vs negative read counts)” value (mutant degron: Degron-ID 2032, SEQ ID NO 1761, 46F_47K_49E_50V_52G_53A_54P 55F 67L) was 2.016. The “A63_logFC (Estimated LogFC Coefficient, positive vs negative read counts)” value (mutant degron: Degron-ID 2220, SEQ ID NO 1759, 46F_47L_49E_50I_52G_53A_54A_55F_67L) was 2.022, the “A63_logFC (Estimated LogFC Coefficient, positive vs negative read counts)” value (mutant degron: Degron-ID 2352, SEQ ID NO 1758, 46F_47L_49P_50I_52G_53A 54P 55F_67L) was 2.022 and the “A63_logFC (Estimated LogFC Coefficient, positive vs negative read counts)” value (mutant degron: Degron-ID 2873, SEQ ID NO 1765, 46F_47N_49P_50V_52G_53A_54Q_55F_67L) was 2.01. The “A63_logFC (Estimated LogFC Coefficient, positive vs negative read counts)” value (mutant degron: Degron-ID 2874, SEQ ID NO 1756, 46F_47N_49P_50V_52G_53A_54R_55F_67L) was 2.023, the “A63_logFC (Estimated LogFC Coefficient, positive vs negative read counts)” value (mutant degron: Degron-ID 3479, SEQ ID NO 1750, 46F_47S_49E_50V_52G_53A_54Y_55F_67L) was 2.034 and the “A63_logFC (Estimated LogFC Coefficient, positive vs negative read counts)” value (mutant degron: Degron-ID 3732, SEQ ID NO 1751, 46F 47T 49N 50I 52G 53A 54P 55F 67L) was 2.034. The “A63_logFC (Estimated LogFC Coefficient, positive vs negative read counts)” value (mutant degron: Degron-ID 4130, SEQ ID NO 1769, 46F_47W_49D_50V_52G_53A_54M_55F_67L) was 2.004, the “A63_logFC (Estimated LogFC Coefficient, positive vs negative read counts)” value (mutant degron: Degron-ID 4210, SEQ ID NO 1753, 46F_47W_49N_50I_52G_53A_54M_55F 67L) was 2.029 and the “A63_logFC (Estimated LogFC Coefficient, positive vs negative read counts)” value (mutant degron: Degron-ID 4213, SEQ ID NO 1757, 46F_47W_49N_50I_52G_53A_54Q_55F_67L) was 2.023. The “A63_logFC (Estimated LogFC Coefficient, positive vs negative read counts)” value (mutant degron: Degron-ID 6432, SEQ ID NO 1764, 46F_47W_49P_50I_52G_53R_54P_55F_67L) was 2.011, the “A63_logFC (Estimated LogFC Coefficient, positive vs negative read counts)” value (mutant degron: Degron-ID 6552, SEQ ID NO 1755, 46L 47F_49P_50I_52G_53F_54P 55C 67L) was 2.023 and the “A63_logFC (Estimated LogFC Coefficient, positive vs negative read counts)” value (mutant degron: Degron-ID 6583, SEQ ID NO 1754, 46L_47H_49P_50I_52G_53F_54E_55C_67L) was 2.028. The “A63_logFC (Estimated LogFC Coefficient, positive vs negative read counts)” value (mutant degron: Degron-ID 7601, SEQ ID NO 1760, 46L_47A_49E_50I_52G_53F_54C_55C_67L) was 2.006, the “A63_logFC (Estimated LogFC Coefficient, positive vs negative read counts)” value (mutant degron: Degron-ID 7628, SEQ ID NO 1770, 46L_47C_49E_50I_52G_53F_54K_55C_67L) was 2.001 and the “A63_logFC (Estimated LogFC Coefficient, positive vs negative read counts)” value (mutant degron: Degron-ID 7865, SEQ ID NO 1760, 46L 47R_49E_50I_52G_53F_54G_55C_67L) was 2.019. The “A63_logFC (Estimated LogFC Coefficient, positive vs negative read counts)” value (mutant degron: Degron-ID 7971, SEQ ID NO 1768, 46L_47Y_49E_50I_52G_53F_54N_55C_67L) was 2.005.
